Assay results as given in article PMC12613848, “First in human phase 1 study of DT2216, a selective BCL-xL degrader, in patients with relapsed/refractory solid malignancies” (Journal of Hematology & Oncology, 2025).
Read-outs that look alike come from different tables or passages of the source.

Assay: Plasma pharmacokinetics of DT2216 in patients, phase 1 dose escalation
Type: in vivo, human
Details: human, plasma, iv, plasma; for clearance: read-out: CL (converted); for half-life: read-out: T½ (converted); for Vd: read-out: Vdss; for Tmax: median (min, max)
Protocol: Dose escalation consisted of the administration of DT2216 intravenously twice weekly at several different doses outlined in protocol attached. The starting dose was 0.04 mg/kg, established based on pre-clinical toxicity studies. Safety was evaluated using CTCAE version 5.0. The initial three dose levels enrolled one patient, following which for dose level 4 and 5, a 3 + 3 design was utilized following a 100% incremental dose increase for dose levels 2 to 5 until the first dose limiting toxicity (DLT) in cycle 1 was observed. Thereafter, a modified Fibonacci sequence was used to define dose escalation increments until the maximum tolerated dose (MTD) was reached as described in protocol. If no dose-limiting toxicity (DLT) was observed during the DLT monitoring period of first 28 days, the next patient was enrolled at the next higher dose level. Dose-limiting toxicities (DLTs) during the first treatment cycle were defined as any Grade 5 toxicity; Grade 4 neutropenia lasting > 7 days; febrile neutropenia; Grade 4 thrombocytopenia or Grade 3 thrombocytopenia with clinically significant hemorrhage or lasting ≥ 7 days; and Grade ≥ 3 non-hematologic toxicities, excluding nausea, vomiting, or diarrhea lasting ≤ 3 days or transient laboratory abnormalities resolving within 72 h. Hepatotoxicity meeting Hy’s law criteria was also considered a DLT. Transient Grade 3–4 electrolyte abnormalities resolving to ≤ Grade 2 within 72 h were not considered DLTs.
Patients were allowed a maximum of two intra-patient dose escalations. Patients received DT2216 by intravenous infusion on days 1 and 4 weekly for at least 4 weeks, with each cycle consisting of a 28-day cycle for a maximum duration of 1 year until disease progression, unacceptable toxicity, or other withdrawal criteria, as listed in the protocol. The extent of disease was evaluated using imaging studies and disease-appropriate tumor markers every 8 weeks from day 1 of the first cycle. RP2D was established based on MTD as well as other relevant data, including clinical signals of activity, PK, and PD data.
Premedication prior to each infusion was at the discretion of the investigator or according to institutional guidelines. Patient assessment and follow-up procedures can be found in the schedule of assessments in this study. The clinical response was evaluated using RECIST v1.1 per protocol. Blood samples were collected for PK analysis before and after post-infusion at defined intervals, along with platelet counts. Exploratory biomarkers include (but are not limited to) the assessment of BCL-XL and VHL levels in peripheral white blood cells (WBC).
Throughout the course of the dose escalation trial, only one dose-limiting toxicity was observed, with grade 4 thrombocytopenia at a dose level of 0.32 mg/kg. […] The pharmacokinetic parameters of DT2216 were determined in patients following doses on Cycle 1 Day 1 and Cycle 1 Day 22 (Tables 4 and 5). […] AUC0-∞ values ranged from 8650 to 72,300 ng · h/mL over the dose range of 0.04 mg/kg 0.4 mg/kg. […] The volume of distribution at steady state (Vss) was small (< 100 mL/kg) and consistent across the dose groups. Following repeated dosing, accumulation of DT2216 in plasma was not observed with twice weekly dosing, with accumulation ratio values ranging from 0.74 to 1.07 on Cycle 1 Day 22 ([…]) across the dose groups.

[1] = 0.12 mg/kg, Cycle 1 Day 22, 0.12 mg/kg IV BIW, mean (CV%), N = 1
[2] = 0.24 mg/kg, Cycle 1 Day 1, 0.24 mg/kg IV, mean (CV%), N = 7
[3] = 0.24 mg/kg, Cycle 1 Day 22, 0.24 mg/kg IV BIW, mean (CV%), N = 6
[4] = 0.32 mg/kg, Cycle 1 Day 1, 0.32 mg/kg IV, mean (CV%), N = 5
[5] = 0.32 mg/kg, Cycle 1 Day 22, 0.32 mg/kg IV BIW, mean (CV%), N = 5
[6] = 0.4 mg/kg, Cycle 1 Day 1, 0.4 mg/kg IV, mean (CV%), N = 4
[7] = 0.4 mg/kg, Cycle 1 Day 22, 0.4 mg/kg IV BIW, mean (CV%), N = 4

Cc1ncsc1-c1ccc([C@H](C)NC(=O)[C@@H]2C[C@@H](O)CN2C(=O)[C@@H](NC(=O)CCCCCC(=O)N2CCN(CC[C@H](CSc3ccccc3)Nc3ccc(S(=O)(=O)NC(=O)c4ccc(N5CCN(CC6=C(c7ccc(Cl)cc7)CCC(C)(C)C6)CC5)cc4)cc3S(=O)(=O)C(F)(F)F)CC2)C(C)(C)C)cc1 [DT2216]
clearance [1]: 0.138 mL/min/kg
Cmax (0.12 mg/kg, Cycle 1 Day 22, 0.12 mg/kg IV BIW, mean (CV%), N = 1, read-out: Cmax): 2190 ng/mL
half-life [1]: 5.24 h
Vd [1]: 0.0665 L/kg
Tmax (0.12 mg/kg, Cycle 1 Day 22, 0.12 mg/kg IV BIW, N = 1): 2.5 h
AUC(0-t) (0.24 mg/kg, Cycle 1 Day 1, 0.24 mg/kg IV, mean (CV%), N = 6, read-out: AUC0−24): 24500 ng·h/mL
AUC(0-t) (0.24 mg/kg, Cycle 1 Day 1, 0.24 mg/kg IV, mean (CV%), N = 6, read-out: AUClast): 37600 ng·h/mL
AUC(0-inf) (0.24 mg/kg, Cycle 1 Day 1, 0.24 mg/kg IV, mean (CV%), N = 7, read-out: AUC0−∞): 36500 ng·h/mL
clearance [2]: 0.122 mL/min/kg
Cmax (0.24 mg/kg, Cycle 1 Day 1, 0.24 mg/kg IV, mean (CV%), N = 7, read-out: Cmax): 4080 ng/mL
half-life [2]: 10.4 h
Vd [2]: 0.0839 L/kg
Tmax (0.24 mg/kg, Cycle 1 Day 1, 0.24 mg/kg IV, N = 7): 0.75 h
AUC(0-t) (0.24 mg/kg, Cycle 1 Day 22, 0.24 mg/kg IV BIW, mean (CV%), N = 6, read-out: AUC0−24): 26300 ng·h/mL
AUC(0-inf) (0.24 mg/kg, Cycle 1 Day 22, 0.24 mg/kg IV BIW, mean (CV%), N = 6, read-out: AUC0−∞): 30100 ng·h/mL
AUC(0-t) (0.24 mg/kg, Cycle 1 Day 22, 0.24 mg/kg IV BIW, mean (CV%), N = 6, read-out: AUClast): 26400 ng·h/mL
clearance [3]: 0.15 mL/min/kg
Cmax (0.24 mg/kg, Cycle 1 Day 22, 0.24 mg/kg IV BIW, mean (CV%), N = 6, read-out: Cmax): 3090 ng/mL
half-life [3]: 7.27 h
Vd [3]: 0.0939 L/kg
Tmax (0.24 mg/kg, Cycle 1 Day 22, 0.24 mg/kg IV BIW, N = 6): 2.5 h
AUC(0-inf) (0.32 mg/kg, Cycle 1 Day 1, 0.32 mg/kg IV, mean (CV%), N = 5, read-out: AUC0−∞): 41500 ng·h/mL
clearance [4]: 0.132 mL/min/kg
half-life [4]: 7.09 h
Vd [4]: 0.0683 L/kg
AUC(0-t) (0.32 mg/kg, Cycle 1 Day 1, 0.32 mg/kg IV, mean (CV%), N = 6, read-out: AUC0−24): 33300 ng·h/mL
AUC(0-t) (0.32 mg/kg, Cycle 1 Day 1, 0.32 mg/kg IV, mean (CV%), N = 6, read-out: AUClast): 43200 ng·h/mL
Cmax (0.32 mg/kg, Cycle 1 Day 1, 0.32 mg/kg IV, mean (CV%), N = 6, read-out: Cmax): 5710 ng/mL
Tmax (0.32 mg/kg, Cycle 1 Day 1, 0.32 mg/kg IV, N = 6): 0.75 h
AUC(0-t) (0.32 mg/kg, Cycle 1 Day 22, 0.32 mg/kg IV BIW, mean (CV%), N = 5, read-out: AUC0−24): 32700 ng·h/mL
AUC(0-inf) (0.32 mg/kg, Cycle 1 Day 22, 0.32 mg/kg IV BIW, mean (CV%), N = 5, read-out: AUC0−∞): 35000 ng·h/mL
AUC(0-t) (0.32 mg/kg, Cycle 1 Day 22, 0.32 mg/kg IV BIW, mean (CV%), N = 5, read-out: AUClast): 32900 ng·h/mL
clearance [5]: 0.154 mL/min/kg
half-life [5]: 5.82 h
Vd [5]: 0.0837 L/kg
Cmax (0.32 mg/kg, Cycle 1 Day 22, 0.32 mg/kg IV BIW, mean (CV%), N = 6, read-out: Cmax): 4480 ng/mL
Tmax (0.32 mg/kg, Cycle 1 Day 22, 0.32 mg/kg IV BIW, N = 6): 2.5 h
AUC(0-t) (0.4 mg/kg, Cycle 1 Day 1, 0.4 mg/kg IV, mean (CV%), N = 4, read-out: AUC0−24): 53000 ng·h/mL
AUC(0-inf) (0.4 mg/kg, Cycle 1 Day 1, 0.4 mg/kg IV, mean (CV%), N = 4, read-out: AUC0−∞): 73200 ng·h/mL
AUC(0-t) (0.4 mg/kg, Cycle 1 Day 1, 0.4 mg/kg IV, mean (CV%), N = 4, read-out: AUClast): 72300 ng·h/mL
clearance [6]: 0.0928 mL/min/kg
Cmax (0.4 mg/kg, Cycle 1 Day 1, 0.4 mg/kg IV, mean (CV%), N = 4, read-out: Cmax): 8590 ng/mL
half-life [6]: 10.7 h
Vd [6]: 0.0709 L/kg
Tmax (0.4 mg/kg, Cycle 1 Day 1, 0.4 mg/kg IV, N = 4): 0.75 h
AUC(0-t) (0.4 mg/kg, Cycle 1 Day 22, 0.4 mg/kg IV BIW, mean (CV%), N = 4, read-out: AUC0−24): 53700 ng·h/mL
AUC(0-inf) (0.4 mg/kg, Cycle 1 Day 22, 0.4 mg/kg IV BIW, mean (CV%), N = 4, read-out: AUC0−∞): 59500 ng·h/mL
AUC(0-t) (0.4 mg/kg, Cycle 1 Day 22, 0.4 mg/kg IV BIW, mean (CV%), N = 4, read-out: AUClast): 54000 ng·h/mL
clearance [7]: 0.117 mL/min/kg
Cmax (0.4 mg/kg, Cycle 1 Day 22, 0.4 mg/kg IV BIW, mean (CV%), N = 4, read-out: Cmax): 6270 ng/mL
half-life [7]: 6.7 h
Vd [7]: 0.0729 L/kg
Tmax (0.4 mg/kg, Cycle 1 Day 22, 0.4 mg/kg IV BIW, N = 4): 2.5 h
AUC(0-inf) (over dose range 0.04 mg/kg to 0.4 mg/kg IV, read-out: AUC0-∞ values): 8650 to 72300 ng·h/mL
Cmax (over dose range 0.04 mg/kg to 0.4 mg/kg IV, read-out: mean Cmax values): 738 to 8590 ng/mL
